Laboratory results: US8012463B2, “Coordination complex of diaminocyclohexaneplatinum(II) with block copolymer containing poly(carboxylic acid) segment and antitumor agent comprising the same” (Toudai TLO, Ltd., priority 2003, dated 2011)

Legend:
[1] = system: mouse colon 26 (C-26) cell strain; assay: Cytotoxicity in vitro, growth inhibition by MTT method; format: cell-based; conditions: C-26 cells
Procedure: Growth inhibiting activities of free CDDP, CDDP micelle, DACH Pt micelle, mixtures of DACH Pt micelle and CDDP micelle at various mixing ratios (1/3, 1/1 and 3/1) against mouse colon 26 (C-26) cell strain were evaluated with MTT method. 5,000 cells were cultured in a 96 well-multiplate supplied with 50 μl of RPMI 1640 medium containing 10% fetal bovine serum. The cells were exposed to drugs for 48 and 72 hours. MTT solution was added, and 150 μl of a solution containing 10 wt % of sodium dodecylsulfate (SDS) supplemented with 0.01M HCl was added after 6 hours. Viability of cells was then measured based on optical density at 570 nm of formazan produced after 24 hours.

ascites sarcoma 180 = conditions: cited from earlier work

With `N.N.[Cl][Pt][Cl]` [Free CDDP, Cisplatin] as the compound, how does the IC50 ([1]; culture time 48 hours) read?
Its IC50 is 1.5 µg/mL.

And the IC50 ([1]; culture time 72 hours)?
The IC50 was 0.65 µg/mL.

Which “therapeutic index relative to Pt(oxalato)-(cis-dach)” value (ascites sarcoma 180; in vivo) does the source give for `NC1CCCCC1N.O=C([O-])CC(=O)[O-].[Pt+2]` (centres unmarked) [Pt(malonato)-(dach)] here?
Its value is “half or less”.

What about the “ED90 dose compared with Pt(oxalato)-(dach)” value (ascites sarcoma 180; ratio to Pt(oxalato)-(dach)) of the same compound?
Its value is at least 5 times.

For `O=C1[O][Pt-2]2([NH2+]C3CCCC[C@H]3[NH2+]2)[O]C1=O` (some centres unmarked) [Pt(oxalato)-(dach)], which ED90 (ascites sarcoma 180; experimental animals bearing ascites sarcoma 180) is on record?
The ED90 was “excellent ED90”.
